Measurements taken from patent US20090325931A1, “USE OF CDK INHIBITORS FOR THE TREATMENT OF GRANULOCYTE MEDIATED DISORDERS” (University Court of the University of Edinburgh, priority 2006, published 2009).

How the values were obtained:
human neutrophils [1] = experiment: Human neutrophil apoptosis (annexin-V-FITC binding, confirmed by morphology); format: cell-based; conditions: for rate of apoptosis, time course study: after 8 h, NG75 10 μM, HD 10 μM; for rate of constitutive apoptosis: increasing concentrations, over 20 h; for rates of apoptosis assessed by annexin V binding: stereoisomers at 20 μM, after 6 h, mean±s.e.m., n=4 donors, control 12.4±0.4%
[2] = test system: carrageenan-induced pleural inflammation; experiment: Carrageenan-induced pleurisy; format: in vivo, C57BL/6J mice
serum induced arthritis = experiment: Passively-induced (K/BxN serum) arthritis; format: in vivo, C57BL/6J mice; conditions: 10 mg/kg i.p. on days 3-19 every second day
Experimental: Sera (100 μl) extracted from 60 day old arthritic K/B×N mice was injected intra-peritoneally into 6-8 week old female C57BL/6J mice (B&K, Hull, UK). Arthritis was scored by clinical examination. Briefly, a score of 1 was given for erythema alone or swelling of 1 digit. A score of 2 resulted from erythema plus swelling of the tarsal joints or swelling of the hock or wrist joint alone. A maximum score of 3 was achieved when swelling was present in both tarsal and hock joints, or both wrist and digits, or more than 2 digits and the tarsal joints. The score for each limb was added giving a maximum score of 12 and the mean score reflects the total score divided by the number of recipient mice per group.
Mice (n=10 in each group) were injected twice (days 0 and 3) with K/B×N serum derived from arthritic (day 60) K/B×N transgenic mice. Clinical scores were assessed on the days indicated.

human neutrophils [3] = experiment: Reversal of dbcAMP, GMCSF and LPS mediated survival of neutrophils; format: cell-based; conditions: 30 min pre-incubation with survival factor, then 20 h
Experimental: At least 500 cells were counted per slide and the percentage apoptosis calculated. Apoptosis and loss of membrane integrity was also assessed by flow cytometry using human recombinant annexin-V-FITC (Roche, UK) to measure phosphatidylserine (PS) exposure, in combination with propidium iodide (Sigma). Stock annexin-V-FITC was diluted at 1:500 in annexin-V binding buffer (500 ml Hanks Balanced Salt Solution containing […]) and was added at a volume of 280 μl to 5×10^4 cells, and then incubated on ice for 10 min. 1 μl of PI (stock 1 mg/ml) was added to the samples shortly before analysis using the EPICS XL2 flow cytometer (Beckman Coulter, High Wycombe, UK). Where apoptosis data are presented as annexin-V binding, apoptosis was also confirmed by morphological assessment.
Since CDK inhibitors were able to accelerate apoptosis, the inventors investigated whether these compounds could also reverse the effects of agents known to delay apoptosis through different signaling pathways (Riley, N. A. et al. Anti-inflammatory & Anti-Allergy Agents in Medicinal Chemistry 5, 3-12 (2006)). […] Lipopolysaccharide (LPS) binds to Toll-like receptor (TLR)4, that interacts with CD14 eventually leading to mitogen-activation kinases (MAPK), PI3K and/or NF-κB signaling to inhibit apoptosis. […] Apoptosis was assessed by annexin-V-FITC, and checked by morphology.

caspase-3 = experiment: Caspase-3 cleavage in neutrophils (western blot); conditions: 20 μM, 4 h
Mcl-1 = Mcl-1 protein expression in neutrophils (western blot); format: cell-based, human
tumor = conditions: cited from earlier work
[4] = zVAD-fmk 1 μg/Kg i.p. at 4 h intervals
[5] = zVAD-fmk 1 μg/Kg i.p. at 4 h intervals, R-roscovitine 10 mg/Kg
[6] = 10 or 100 mg/Kg i.p., 36 h post-carrageenan

COC(=O)C[C@H](NC(=O)[C@H](C)NC(=O)[C@@H](NC(=O)OCc1ccccc1)C(C)C)C(=O)CF (racemic) [zVAD-fmk, z-Val-Ala-DL-Asp-fluoromethylketone]
effect on R-roscovitine induced apoptosis (human neutrophils [1]; zVAD-fmk 100 μM, R-roscovitine 20 μM, 6 h): prevented R-roscovitine induced apoptosis
edema formation compared with saline or vehicle controls [2, 4]: increasing
total inflammatory cell number compared with saline or vehicle controls [2, 4]: increasing
effect on R-roscovitine increase in inflammatory cell apoptosis and macrophages containing apoptotic bodies [2, 5]: inhibited dramatically
effect on R-roscovitine-induced decrease in inflammatory cells and edema formation [2, 5]: prevented

COc1ccc(CNc2nc(N[C@@H](CO)C(C)C)nc3c2ncn3C(C)C)cc1 [NG75, 2-(1R-isopropyl-2-hydroxyethylamino)-6-(4-methoxy-benzylamino)-9-isopropylpurine]
annexin-V/PI positive cell populations (secondary necrosis) (human neutrophils [1]; 20 h treatment): increased number
rate of apoptosis, time course study (human neutrophils [1]; R-roscovitine 20 μM): increased the rate of apoptosis dramatically
annexin V positive cells (human neutrophils [1]; after 8 h of treatment): marked increase
rate of constitutive apoptosis (human neutrophils [1]): significantly increased

CC[C@H](CO)Nc1nc(NCc2ccccc2)c2ncn(C(C)C)c2n1 [R-roscovitine, (R)-2-[{9-(1-methylethyl)-6-[(phenylmethyl)amino]-9H-purin-2-yl]amino}-1-butanol]
arthritis as assessed by clinical scores (serum induced arthritis): dramatically resolved quicker
rate of apoptosis, time course study (human neutrophils [1]; R-roscovitine 20 μM): increased the rate of apoptosis dramatically
rate of constitutive apoptosis (human neutrophils [1]): significantly increased
rates of apoptosis assessed by annexin V binding (human neutrophils [1]): 75.9±3.5%
effect on survival signals (dbcAMP, GMCSF, LPS delayed apoptosis) (human neutrophils [3]): clearly is dominant over survival factor mediated effects
caspase-3 cleavage (caspase-3): results in caspase-3 cleavage
effect on GM-CSF mediated up-regulation of Mcl-1 (Mcl-1; R-roscovitine 20 μM plus GM-CSF 50 U/ml, 4 h): inhibits GM-CSF mediated up-regulation of Mcl-1
inhibition of total inflammatory cell number compared with vehicle control ([2]; 10 mg/kg i.p. 24 h after carrageenan, 36 h post-carrageenan): greater than 50%
number of monocytes/macrophages and neutrophils ([2]; 10 mg/kg i.p., 36 h post-carrageenan): reduction
lung inflammation (inflammatory infiltrate in lung sections) ([2]; 100 mg/Kg i.p., 36 h post-carrageenan): dramatically reduced
pleural cavity total cell numbers over seven days ([2]; 100 mg/kg i.p. at 24 h, all time points examined): marked resolution of inflammation
amount of inflammatory cells in pleural cavity ([2]; 100 mg/kg i.p., 36 h post-carrageenan): near baseline levels
IFN-γ in the inflammatory exudate [2, 6]: diminished
IL-6 in the inflammatory exudate [2, 6]: diminished
MCP-1 in the inflammatory exudate [2, 6]: diminished
edema formation (total exudate volume), decrease compared with saline control ([2]; 36 h post-carrageenan): three-fold
inflammatory cell apoptosis and macrophages containing apoptotic bodies in the pleural cavity ([2]; 36 h post-carrageenan): increase
tolerability (tumor; even with high doses of 2 g/kg): well tolerated
tumor size (tumor; systemic administration): specific reduction in tumor size

CC[C@@H](CO)Nc1nc(NCc2ccccc2)c2ncn(C(C)C)c2n1 [S-roscovitine]
rates of apoptosis assessed by annexin V binding (human neutrophils [1]): 75.6±3.3%

GM-CSF: pro-survival factor (R & D Systems)
effect on fall of Mcl-1 levels in culture (Mcl-1; GM-CSF 50 U/ml): prevented
